# Tests used:
# αCBD(151-297) IgG [1] = experiment: Neutralization of the inhibitory activity of αCBD(151-297) IgG by synthetic CBD peptides; type: binding, rabbit
# Protocol: The different synthetic CBD peptides described above and shown to react with the αCBD(151-297) IgG were assayed for their potential to neutralize the inhibitory activity of the antibody. The αCBD(151-297) IgG (12 μg) was preincubated with a single dose (100 μg) of each peptide in step one. The S. aureus cells were then added and the preincubation continued. Finally, the ^125I-labeled type II Col was added. Peptide CBD4 neutralized 68% of αCBD(151-297) IgG inhibitory activity, while the other peptides tested had little or no effect. […] Although other peptide sequences were more immunogenic than CBD4, the antibodies recognizing the corresponding epitopes were not inhibitory.
# (§1) To further investigate the interaction between peptide CBD4 and αCBD(151-297) IgG and its affect on Col binding, a fixed concentration of the antibody was incubated with an increasing amount of peptide CBD4. […] Thus, a relatively small reduction in inhibition could be easily detected.
# αCBD(151-297) IgG [2] = experiment: ELISA reactivity of αCBD(151-297) IgG with eight 25-amino-acid synthetic CBD peptides; type: binding, rabbit; conditions: 25-amino-acid synthetic peptides as targets
# Protocol: Rabbits were immunized with […] as described. Sera were also collected prior to immunization and tested for reactivity to CBD(151-297). The reactivity of the antiserum with different segments of CBD(151-297) was tested in an ELISA using a series of eight 25-amino-acid long synthetic peptides with partially overlapping sequences as targets. Purified IgG reacted strongly with peptides 2, 3, 5, 6, and 7 and weakly with peptides 1, 4, and 8. When preimmune IgG was tested with the CBD peptides, little reaction could be detected. The relative immunological reactivity of the different peptides correlated closely with their antigenic index using the algorithm of Jameson and Wolf (1988).
# S. aureus = experiment: Inhibition of binding of 125I-labeled type II Col to S. aureus cells; set-up: species or system Staphylococcus aureus
# Protocol: Purified αCBD(151-297) IgG inhibited the binding of S. aureus to ^125I-labeled Col in a dose-dependent manner.
# as §1
# Peptide CBD7 which reacted strongly with αCBD(151-297) IgG in the ELISA assay was also tested. […] Five μM CBD4 inhibited binding by over 50%.
# To identify residues within CBD4 necessary for Col binding synthesized several smaller overlapping peptides were synthesized. A series of peptides that contained a 2 amino-terminal residues and one peptide that contained a 2 amino acid deletion at the carboxyl terminus were made. The peptides (10 μM) were assayed for their ability to inhibit the binding of ^1251I-labeled Col to S. aureus. Peptide CBD4 inhibited Col binding by 76%, whereas all peptides containing amino-terminal truncations had little activity at the concentration tested.
# [3] = system: strain of S. aureus that does not express the Col-binding MSCRAMM; experiment: Mouse sepsis control study, challenge with S. aureus not expressing the Col-binding MSCRAMM; type: in vivo; conditions: immunized mice, challenge strain without Col-binding MSCRAMM
# Description: The mortality in the M55 group was 50% compared to 30% in the BSA group.
# M55 = M55 (Staphylococcus aureus, UniProt Q53654); conditions: animals immunized with M55 and infected with a sub-lethal dose S. aureus
# Sequence of M55 (Q53654 18-529, looked up, natural form): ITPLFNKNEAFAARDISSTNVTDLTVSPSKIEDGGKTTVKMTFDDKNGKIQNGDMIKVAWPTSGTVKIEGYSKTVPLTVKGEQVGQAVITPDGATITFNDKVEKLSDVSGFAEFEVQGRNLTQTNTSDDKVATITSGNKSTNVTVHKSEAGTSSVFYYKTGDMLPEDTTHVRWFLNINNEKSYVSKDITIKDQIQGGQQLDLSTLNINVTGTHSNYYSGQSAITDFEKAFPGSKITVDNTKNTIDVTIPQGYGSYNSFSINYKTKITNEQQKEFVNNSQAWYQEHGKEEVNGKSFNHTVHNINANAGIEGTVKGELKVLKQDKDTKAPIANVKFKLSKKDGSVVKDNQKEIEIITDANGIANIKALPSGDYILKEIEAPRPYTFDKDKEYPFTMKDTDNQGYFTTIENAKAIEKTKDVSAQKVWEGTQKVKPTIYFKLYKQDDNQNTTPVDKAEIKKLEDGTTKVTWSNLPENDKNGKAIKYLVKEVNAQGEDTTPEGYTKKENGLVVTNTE
# Protocol: Serum level of specific antibodies against the collagen adhesion peptide M55 was measured by an enzyme-linked immunosorbent assay (ELISA). 96-well microplates (Nunc) were coated overnight at 4° C. with 2 μg/ml of M55 peptide. Blocking was done with 0.5% ovalbumin (Sigma Chemical Co., St. Louis, MO) dissolved in 0.05 M Tris (pH 7.7). Sera, biotinylated antibodies, the ExtrAvidin-peroxidase (Sigma) were all diluted in 0.05 M Tris (pH7.4)-0.015 M NaCl. The plates were incubated overnight at 4° C. with sera, washed and incubated stepwise with biotinylated goat anti-mouse IgG antibody (Jackson Immuno Research Laboratories, Inc., West Grove, PA), ExtrAvidin-peroxidase (0.5 μg/ml; Sigma) and ABTS substrate. The A405 was measured in a Titertec Multiscan photometer (Flow Laboratories, McLean, Va.). […] OVA was used as control solid antigen.
# [4] = system: S. aureus strain Phillips; experiment: Mouse sepsis model, active immunization, intravenous challenge with S. aureus expressing CBP; type: in vivo, mice
# Description: Gram-positive bacteria related sepsis is on the increase. In fact between one-third and one-half of all cases of sepsis are caused by gram-positive bacteria, particularly S. aureus and S. epidermidis. In the United States, it can be estimated that over 200,000 patients will develop gram-positive related sepsis this year. […] Mice were immunized subcutaneously with either M55 or a control antigen (bovine serum albumin) and then challenged intravenously with S. aureus. Eighty-three percent (35/42) of the mice immunized with M55 survived compared to only 27% of the BSA immunized mice (12/45). This is a compilation of 3 separate studies.
# Day -31: 100μg/mouse of a CBP Epitope (i.e. M17, M31, or M55) or BSA emulsified with Freund's Complete adjuvant (Difco Laboratories) as a control.
# Day -18: 100μg/mouse of a CBP Epitope (ie. M17, M31, or M55) or BSA dissolved in sterile phosphate buffered saline (PBS)
# Day -7: 100μg/mouse of a CBP Epitope (i.e. M17, M31, or M55) or BSA dissolved in PBS
# Day 0: inoculate intravenously S. aureus strain Phillips (which expresses CBP) (Dose: 2.8×10^7 cfu/mouse)
# Day 14: end of study; all surviving mice were euthanized.
# [5] = subcutaneous immunization, intravenous challenge, compilation of 3 separate studies
Substance,"effect of peptide on Col binding to S. aureus in presence of αCBD(151-297) IgG (αCBD(151-297) IgG [1]; 100 μg peptide, IgG 12 μg/ml)",neutralization of αCBD(151-297) IgG inhibitory activity (αCBD(151-297) IgG [1]; IgG 12 μg preincubated with single dose 100 μg peptide) [%],reactivity with purified αCBD(151-297) IgG in ELISA (αCBD(151-297) IgG [2]),inhibition of 125I-Col binding to S. aureus (S. aureus; Five μM peptide incubated with 125I-Col before S. aureus),direct inhibition of 125I-Col binding to S. aureus (S. aureus; increasing amounts of peptide preincubated with 125I-Col),inhibition of binding of 125I-labeled Col to S. aureus (S. aureus; peptide 10 μM) [%],mortality [3] [%],anti-M55 IgG (Col MSCRAMM) titers (M55),"mice died/total ([4]; 100μg/mouse on days -31, -18, -7, 2.8×10^7 cfu/mouse i.v. day 0, end day 14)",protection against sepsis ([4]; in words),"percent of mice surviving [4, 5]","surviving mice/total mice [4, 5]"
"CBD4: 25-amino-acid synthetic peptide, amino acids 209-233 (Asp209 to Tyr233) of S. aureus CBP (DQIQGGQQLDLSTLNINVTGTHSNY)",restored the level of Col binding to S. aureus observed in absence of αCBD(151-297) IgG,68,weakly,over 50%,inhibited in a dose-dependent manner,76,,,,,,
"M55: recombinant His-tagged S. aureus Col-binding MSCRAMM derivative, amino acids 30-531 of full length CBP (SEQ ID NO:6)",,,,,,,50,32×10^9 units/ml,4/11,highly effective in protecting against sepsis,Eighty-three,35/42
